According to PubChem BioAssay (NCI):
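The compound was tested at five concentrations on cells cultured in 96-well plates, with a 48-hour exposure period. TGI denotes the concentration required for complete inhibition of growth.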

Key:
Test in all cases: NCI anticancer screen, dose series, 48 h
786-0 renal = tested on: 786-0 renal
A549 NSCLC = tested on: A549 NSCLC
ACHN renal = tested on: ACHN renal
CAKI-1 renal = tested on: CAKI-1 renal
CCRF-CEM leukemia = tested on: CCRF-CEM leukemia
COLO 205 colon = tested on: COLO 205 colon
DLD-1 colon = tested on: DLD-1 colon
DMS 114 small cell lung = tested on: DMS 114 small cell lung
DMS 273 small cell lung = tested on: DMS 273 small cell lung
EKVX NSCLC = tested on: EKVX NSCLC
HCC-2998 colon = tested on: HCC-2998 colon
HCT-15 colon = tested on: HCT-15 colon
HL-60(TB) leukemia = tested on: HL-60(TB) leukemia
HOP-62 NSCLC = tested on: HOP-62 NSCLC
HOP-92 NSCLC = tested on: HOP-92 NSCLC
HT29 colon = tested on: HT29 colon
IGROV1 ovarian = tested on: IGROV1 ovarian
K-562 leukemia = tested on: K-562 leukemia
KM12 colon = tested on: KM12 colon
KM20L2 colon = tested on: KM20L2 colon
LOX IMVI melanoma = tested on: LOX IMVI melanoma
LXFL 529 NSCLC = tested on: LXFL 529 NSCLC
M14 melanoma = tested on: M14 melanoma
M19-MEL melanoma = tested on: M19-MEL melanoma
MALME-3M melanoma = tested on: MALME-3M melanoma
MOLT-4 leukemia = tested on: MOLT-4 leukemia
NCI-H23 lung = tested on: NCI-H23 lung
NCI-H460 lung = tested on: NCI-H460 lung
NCI-H522 lung = tested on: NCI-H522 lung
OVCAR-3 ovarian = tested on: OVCAR-3 ovarian
OVCAR-4 ovarian = tested on: OVCAR-4 ovarian
OVCAR-5 ovarian = tested on: OVCAR-5 ovarian
OVCAR-8 ovarian = tested on: OVCAR-8 ovarian
RPMI-8226 leukemia = tested on: RPMI-8226 leukemia
RXF 393 renal = tested on: RXF 393 renal
SF-268 CNS = tested on: SF-268 CNS
SF-295 CNS = tested on: SF-295 CNS
SK-MEL-2 melanoma = tested on: SK-MEL-2 melanoma
SK-MEL-28 melanoma = tested on: SK-MEL-28 melanoma
SK-MEL-5 melanoma = tested on: SK-MEL-5 melanoma
SK-OV-3 ovarian = tested on: SK-OV-3 ovarian
SN12C renal = tested on: SN12C renal
SNB-19 CNS = tested on: SNB-19 CNS
SNB-75 CNS = tested on: SNB-75 CNS
SNB-78 CNS = tested on: SNB-78 CNS
SW-620 colon = tested on: SW-620 colon
TK-10 renal = tested on: TK-10 renal
UACC-257 melanoma = tested on: UACC-257 melanoma
UACC-62 melanoma = tested on: UACC-62 melanoma
UO-31 renal = tested on: UO-31 renal
XF 498 CNS = tested on: XF 498 CNS
A498 renal = tested on: A498 renal
BT-549 breast = tested on: BT-549 breast
DU-145 prostate = tested on: DU-145 prostate
HCT-116 colon = tested on: HCT-116 colon
HOP-18 NSCLC = tested on: HOP-18 NSCLC
HS 578T breast = tested on: HS 578T breast
MCF7 breast = tested on: MCF7 breast
MDA-MB-231 breast = tested on: MDA-MB-231 breast
MDA-MB-435 = tested on: MDA-MB-435
MDA-N = tested on: MDA-N
NCI-H226 lung = tested on: NCI-H226 lung
NCI/ADR-RES ovarian = tested on: NCI/ADR-RES ovarian
PC-3 prostate = tested on: PC-3 prostate
SF-539 CNS = tested on: SF-539 CNS
SR leukemia = tested on: SR leukemia
T-47D breast = tested on: T-47D breast
U251 CNS = tested on: U251 CNS

`c1ccc(CNn2nnc3ccccc32)cc1` was tested, and the TGI (786-0 renal) was > 100 µM, the TGI (A549 NSCLC) was > 100 µM and the TGI (ACHN renal) was > 100 µM. For the same compound, the TGI (CAKI-1 renal) was > 100 µM, the TGI (CCRF-CEM leukemia) was > 100 µM and the TGI (COLO 205 colon) was > 100 µM. The TGI (DLD-1 colon) was > 100 µM, the TGI (DMS 114 small cell lung) was > 100 µM and the TGI (DMS 273 small cell lung) was > 100 µM. The TGI (EKVX NSCLC) was > 100 µM, the TGI (HCC-2998 colon) was > 100 µM and the TGI (HCT-15 colon) was > 100 µM. The TGI (HL-60(TB) leukemia) was > 100 µM, the TGI (HOP-62 NSCLC) was > 100 µM and the TGI (HOP-92 NSCLC) was > 100 µM. The TGI (HT29 colon) was > 100 µM, the TGI (IGROV1 ovarian) was > 100 µM and the TGI (K-562 leukemia) was > 100 µM. For the same compound, the TGI (KM12 colon) was > 100 µM, the TGI (KM20L2 colon) was > 100 µM and the TGI (LOX IMVI melanoma) was > 100 µM. For the same compound, the TGI (LXFL 529 NSCLC) was > 100 µM, the TGI (M14 melanoma) was > 100 µM and the TGI (M19-MEL melanoma) was > 100 µM. For the same compound, the TGI (MALME-3M melanoma) was > 100 µM, the TGI (MOLT-4 leukemia) was > 100 µM and the TGI (NCI-H23 lung) was > 100 µM. For the same compound, the TGI (NCI-H460 lung) was > 100 µM, the TGI (NCI-H522 lung) was > 100 µM and the TGI (OVCAR-3 ovarian) was > 100 µM. For the same compound, the TGI (OVCAR-4 ovarian) was > 100 µM, the TGI (OVCAR-5 ovarian) was > 100 µM and the TGI (OVCAR-8 ovarian) was > 100 µM. For the same compound, the TGI (RPMI-8226 leukemia) was > 100 µM, the TGI (RXF 393 renal) was > 100 µM and the TGI (SF-268 CNS) was > 100 µM. The TGI (SF-295 CNS) was > 100 µM, the TGI (SK-MEL-2 melanoma) was > 100 µM and the TGI (SK-MEL-28 melanoma) was > 100 µM. The TGI (SK-MEL-5 melanoma) was > 100 µM, the TGI (SK-OV-3 ovarian) was > 100 µM and the TGI (SN12C renal) was > 100 µM. The TGI (SNB-19 CNS) was > 100 µM, the TGI (SNB-75 CNS) was > 100 µM and the TGI (SNB-78 CNS) was > 100 µM. The TGI (SW-620 colon) was > 100 µM, the TGI (TK-10 renal) was > 100 µM and the TGI (UACC-257 melanoma) was > 100 µM. For the same compound, the TGI (UACC-62 melanoma) was > 100 µM, the TGI (UO-31 renal) was > 100 µM and the TGI (XF 498 CNS) was > 100 µM.
`N#CC(NNC(=O)Cc1ccccc1)c1c(O)ccc2ccccc12` (configuration not stated) was tested, and the TGI (786-0 renal) was 39.2 µM, the TGI (A498 renal) was > 72.5 µM and the TGI (A549 NSCLC) was 44.1 µM. The TGI (ACHN renal) was 20.2 µM, the TGI (BT-549 breast) was 24.7 µM and the TGI (CAKI-1 renal) was 25.8 µM. For the same compound, the TGI (CCRF-CEM leukemia) was 26.9 µM, the TGI (COLO 205 colon) was > 80.5 µM and the TGI (DLD-1 colon) was > 100 µM. The TGI (DMS 114 small cell lung) was 5.38 µM, the TGI (DMS 273 small cell lung) was 19.1 µM and the TGI (DU-145 prostate) was > 63.2 µM. It also gave a TGI (EKVX NSCLC) of 65.6 µM, a TGI (HCC-2998 colon) of 45.4 µM and a TGI (HCT-116 colon) of 50.9 µM. For the same compound, the TGI (HCT-15 colon) was > 100 µM, the TGI (HL-60(TB) leukemia) was > 46 µM and the TGI (HOP-18 NSCLC) was 35.4 µM. It also gave a TGI (HOP-62 NSCLC) of 59.2 µM, a TGI (HOP-92 NSCLC) of 41.3 µM and a TGI (HS 578T breast) of 50.5 µM. For the same compound, the TGI (HT29 colon) was 62.1 µM, the TGI (IGROV1 ovarian) was > 76.8 µM and the TGI (K-562 leukemia) was > 100 µM. For the same compound, the TGI (KM12 colon) was > 72.4 µM, the TGI (KM20L2 colon) was 42 µM and the TGI (LOX IMVI melanoma) was 14.3 µM. It also gave a TGI (M14 melanoma) of 21.1 µM, a TGI (M19-MEL melanoma) of 16.3 µM and a TGI (MALME-3M melanoma) of 30.2 µM. The TGI (MCF7 breast) was 14.3 µM, the TGI (MDA-MB-231 breast) was 58.9 µM and the TGI (MDA-MB-435) was 84.1 µM. For the same compound, the TGI (MDA-N) was > 100 µM, the TGI (MOLT-4 leukemia) was > 48.3 µM and the TGI (NCI-H226 lung) was 47.3 µM. The TGI (NCI-H23 lung) was 37.8 µM, the TGI (NCI-H460 lung) was > 77.5 µM and the TGI (NCI-H522 lung) was 34 µM. It also gave a TGI (NCI/ADR-RES ovarian) of 16 µM, a TGI (OVCAR-3 ovarian) of 26.5 µM and a TGI (OVCAR-4 ovarian) of 51 µM. For the same compound, the TGI (OVCAR-5 ovarian) was > 43.5 µM, the TGI (OVCAR-8 ovarian) was 52.2 µM and the TGI (PC-3 prostate) was > 62.9 µM. The TGI (RPMI-8226 leukemia) was > 60.1 µM, the TGI (RXF 393 renal) was 41.9 µM and the TGI (SF-268 CNS) was 54.5 µM. The TGI (SF-295 CNS) was 40.2 µM, the TGI (SF-539 CNS) was 29 µM and the TGI (SK-MEL-2 melanoma) was 26.9 µM. It also gave a TGI (SK-MEL-28 melanoma) of 97.7 µM, a TGI (SK-MEL-5 melanoma) of 15.7 µM and a TGI (SK-OV-3 ovarian) of 31.3 µM. The TGI (SN12C renal) was 61.3 µM, the TGI (SNB-19 CNS) was > 64.4 µM and the TGI (SNB-75 CNS) was 45 µM. For the same compound, the TGI (SNB-78 CNS) was 72 µM, the TGI (SR leukemia) was 38.3 µM and the TGI (SW-620 colon) was > 100 µM. For the same compound, the TGI (T-47D breast) was 60.4 µM, the TGI (TK-10 renal) was 80.4 µM and the TGI (U251 CNS) was 45 µM. The TGI (UACC-257 melanoma) was 18.3 µM, the TGI (UACC-62 melanoma) was 12 µM and the TGI (UO-31 renal) was 11.2 µM.
